The target of assay [1] is T1, GST-hCAR-LBD (Homo sapiens, UniProt Q14994).
T1 construct: GST-hCAR-LBD (5 nM), terbium-labeled anti-GST antibody (5 nM); purchased Invitrogen A15141
T1 sequence (Q14994 109-352 limits assumed): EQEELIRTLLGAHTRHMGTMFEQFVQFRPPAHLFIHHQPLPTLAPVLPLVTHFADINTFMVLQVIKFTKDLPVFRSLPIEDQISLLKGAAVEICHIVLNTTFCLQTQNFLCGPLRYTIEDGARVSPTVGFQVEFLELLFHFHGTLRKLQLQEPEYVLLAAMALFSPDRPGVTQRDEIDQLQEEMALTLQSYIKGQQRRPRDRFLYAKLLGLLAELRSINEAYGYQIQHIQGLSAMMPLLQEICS
The experiment in a line: LanthaScreen TR-FRET PGC1α coactivator recruitment assay. The format is biochemical. How it is done:
LanthaScreen^TM TR-FRET hCAR coactivator assays were performed according to manufacturer’s instructions (Invitrogen, A15141). Test compounds were incubated for 2 h at room temperature with GST-hCAR-LBD (5 nM), terbium-labeled anti-GST antibody (5 nM), and Fluorescein-PGC1α coactivator peptide (125 nM). Incubations were performed in four technical replicates. TR-FRET emissions were measured using a Tecan Infinite F200 Fluorescence Microplate Reader. Results were expressed as the ratio of fluorescence intensity at 520 nm (fluorescein emission excited by terbium emissions) and 495 nm (terbium emissions).

The target in assay [2] is T2, hCAR (Homo sapiens, UniProt Q14994).
T2 construct: The human CAR LBD (Lys^108 – Ser^352) was amplified by PCR from cDNA; HIS6; made in house; host or cells: E. coli BL21(DE3)
T2 sequence (Q14994 108-352): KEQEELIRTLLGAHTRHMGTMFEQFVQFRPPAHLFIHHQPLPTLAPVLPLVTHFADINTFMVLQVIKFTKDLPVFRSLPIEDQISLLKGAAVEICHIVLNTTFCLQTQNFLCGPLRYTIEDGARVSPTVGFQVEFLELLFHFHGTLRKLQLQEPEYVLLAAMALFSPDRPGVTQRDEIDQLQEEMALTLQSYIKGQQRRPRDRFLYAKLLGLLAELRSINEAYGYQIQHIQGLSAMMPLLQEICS
The experiment in a line: Bottom-up HDX-MS of hCAR with ligand. The format is binding. To be noted: 100 µM ligand. The method, then:
Human CAR protein was prepared at 10 µM in 100 mM ammonium acetate pH 7.25 and diluted into either equilibration buffer (10 mM phosphate buffer, pH 7.5) or deuterated reaction buffer (10 mM phosphate buffer, 150 mM NaCl, pH 7.5 in D2O). After labeling times of 1, 10 or 30 min at 25 °C, samples were mixed with equal volumes of quench buffer (100 mM phosphate buffer, pH 2.5) at 0 °C. […] HDX-MS was performed using a commercial Waters HDX system (M-class ACQUITY UPLC and Water Cyclic IMS Mass Spectrometer). Leucine enkephalin was used for mass correction, and all time points were carried out in triplicate. Samples were digested using an Enzymate BEH Pepsin column (2.1 × 30 mm, Waters) at 15 °C. Peptides were desalted on an ACQUITY UPLC BEH C18 VanGuard Pre-column (2.1 × 5 mm, Waters) and separated using an ACQUITY UPLC BEH C18 column (100 × 1 mm, Waters). ProteinLynx Global server (PLGS) and DynamX software was used for peptide identification and deuterium uptake analysis, respectively. PyMOL 2.5 was used for structural visualization.

As to `CC(c1c[nH]c2ccccc12)c1c[nH]c2ccccc12` [DIE, 3,3’-diindolylethane], in assay [1], the PGC1α cofactor recruitment result is recorded as “does not”. Moreover, in assay [2], the “deuterium uptake change, residues 235–243 (H12/AF2)” value is “increased uptake”; the “deuterium uptake difference, amino acids 217–234 (H11)” value is less than 10%; the “difference in deuterium uptake compared to apo hCAR, amino acids 51–65 (H3)” value is greater than 20%.

These data come from article PMC10960024, “Diindoles produced from commensal microbiota metabolites function as endogenous CAR/Nr1i3 ligands” (Nature Communications, 2024).
